Results published in patent publication US11319347B2, “Peptide compound and method for producing same, composition for screening use, and method for selecting peptide compound” (FUJIFILM Corporation, priority 2017, dated 2022).
Starred links: 1 amine or outer side, 2 acyl side, 3 side chain; linkers in the order of their positions; H or OH if unused. Positions of bridges follow the written chain, without caps; N, C: chain ends. Non-standard residues stand in square brackets, D forms with d. Residues, ends and D or L forms follow the SMILES beside them. 2Pal(6-thiazolin-2-yl-4R-CO) = O=C([C@H](Cc1cccc(C2=N[C@H](C(=O)[*:3])CS2)n1)N[*:1])[*:2]; dCha = N[C@H](CC1CCCCC1)C(=O)O

How the values were obtained:
[1] = Membrane permeability of synthesized cyclic peptides by PAMPA (Measurement Method A: 1 μmol/L; Method B: 10 μmol/L); assay type: in vitro ADME; conditions: Measurement method A, 25° C., 4 hours
Method: Evaluation of membrane permeability of synthesized cyclic peptide by PAMPA method In order to compare and examine the membrane permeability of the synthesized cyclic peptide, parallel artificial membrane permeability assay (PAMPA) was carried out.
An artificial phospholipid membrane was produced by adding 5 μL of a phospholipid organic solvent solution consisting of L-α-phosphatidylcholine (Avanti Polar Lipids, Inc., Cat. 840051P, 1.67%), 1,2-dioleoyl-sn-glycero-3-phospho-L-serine (Avanti Polar Lipids, Inc., Cat. 840035P, 0.33%), and n-dodecane special grade (Wako Pure Chemical Industries, Ltd., 047-21612)/1-octanol reagent special grade (Kanto Chemical Co., Inc., Cat. 31013-08)=10:1 to Filter Plate (Merck Millipore Corporation, Cat. MAIPN4550).
475 μL of 50 mmol/L potassium phosphate buffer (KPB, pH 7.4 or pH 6.5) was added to 25 μL of a DMSO solution containing the compound at a concentration of 20 μmol/L, so that the compound was diluted to a final concentration of 1 μmol/L. 300 μL of the compound solution was added to the lower side (donor side) of PAMPA 96-well plate (Filter Plate (Merck Millipore Corporation, Cat. MAIPN4550)) with an artificial phospholipid membrane being interposed therebetween. 200 μL of 5% DMSO KPB (pH 7.4) was added to the upper side (acceptor side) with the artificial phospholipid membrane being interposed therebetween. A permeation test through an artificial phospholipid membrane was carried out at 25° C. for 4 hours. The compound concentration in the solution in the donor plate and the acceptor plate was measured by LC/MS/MS, and the membrane permeation rate (Pe) of the compound was calculated from the following formula, assuming that C0 is an initial compound concentration in donor solution, t is a test time, A is a membrane filter area=0.3 cm^2, VD is a donor solution amount=300 μL, VA is an acceptor solution amount=200 μL, and CD(t) is a compound concentration in donor solution at time t, CA(t) is a compound concentration in acceptor solution at time t, and Cequilibrium=[CD(t)*VD+CA(t)*VA]/(VD+VA).
475 μL of 50 mmol/L potassium phosphate buffer (KPB, pH 7.4 or pH 6.5) was added to 25 μL of a DMSO solution containing the compound at a concentration of […], so that the compound was diluted to a final concentration of 10 μmol/L. The compound solution was added 300 μL each to the lower side (donor side) of an artificial phospholipid membrane of PAMPA 96-well plate (Filter Plate (Merck Millipore Corporation, Cat. MAIPN4550)). 200 μL of 5% DMSO KPB (pH 7.4) was added to the upper side (acceptor side) with the artificial phospholipid membrane being interposed therebetween. A permeation test through an artificial phospholipid membrane was carried out at 25° C. for 4 hours. The compound concentration in the solution in the donor plate and the acceptor plate was measured by LC/MS/MS, and the membrane permeation rate (Pe) of the compound was calculated from the following formula, assuming that Co is an initial compound concentration in donor solution, t is a test time, A is a membrane filter area=0.3 cm^2, VD is a donor solution amount=300 μL, VA is an acceptor solution amount=200 μL, and CD(t) is a compound concentration in donor solution at time t, CA(t) is a compound concentration in acceptor solution at time t, and Cequilibrium=[CD(t)*VD+CA(t)*VA]/(VD+VA).
The membrane permeability (Pe(10^−6 cm/s)) obtained by this method is described in the following table.
(§1) Evaluation standards are as follows.

[2] = Metabolic stability of cyclic peptides in human liver microsomes (HLM residual rate); assay type: in vitro ADME; conditions: 1 μmol/L, human liver microsomes 0.5 mg protein/mL, 37° C., 20 minutes, NADPH and UDPGA
Method: Test of metabolic stability of cyclic peptide in human liver microsome
An experiment using human liver microsomes (HLMs) was carried out in order to compare and examine the metabolic stability of the synthesized cyclic peptides.
The compound with a final concentration of 1 μmol/L was incubated in human liver microsomes (BD Cat #452117) prepared to a final concentration of 0.5 mg protein/mL using 100 mmol/L phosphate buffer (pH 7.4) at 37° C. for 20 minutes in the presence of reduced nicotinamide adenine dinucleotide phosphate (NADPH) and uridine 5′-diphosphate-α-D-glucuronic acid (UDPGA). Deproteinization treatment with acetonitrile was carried out, the amount of unaltered substance remaining was quantified using LC/MS/MS, and the residual rate (%) in 20 minutes was calculated. The HLM residual rate (%) obtained by this method is described in the following table.
as §1

Pe(10^−6 cm/sec) [1]	HLM residual rate [2]	Structure (SMILES)
+ (0.01<Pe (10^−6 cm/s)≤0.2)	+ (HLM residual rate (%)≤40%)	CC(=O)N[C@H]1CSSC[C@@H](C(N)=O)NC(=O)[C@H](CCCNC(=N)N)NC(=O)[C@H](Cc2c[nH]c3ccccc23)NC(=O)[C@@H](CC2CCCCC2)NC(=O)[C@@H]2CCCN2C1=O [9-1] (Ac-CP[dCha]WRC-NH2; disulfide 1-6)
+++ (0.5<Pe (10^−6 cm/s))	+++ (60%<HLM residual rate (%))	N=C(N)NCCCC1NC(=O)[C@H](Cc2c[nH]c3ccccc23)NC(=O)[C@@H](CC2CCCCC2)NC(=O)[C@@H]2CCCN2C(=O)c2csc(n2)-c2cccc(c2)C[C@@H](C(N)=O)NC1=O (some centres unmarked) [6-1]
++ (0.2<Pe (10^−6 cm/s)≤0.5)	+++ (60%<HLM residual rate (%))	COc1cc2cnc1C1=N[C@@H](CS1)C(=O)N1CCC[C@H]1C(=O)N[C@H](CC1CCCCC1)C(=O)N[C@@H](Cc1c[nH]c3ccccc13)C(=O)N[C@@H](CCCNC(=N)N)C(=O)N[C@H](C(N)=O)C2 [2-22]
–	++ (40%<HLM residual rate (%)≤60%)	N=C(N)NCCC[C@@H]1NC(=O)[C@H](Cc2c[nH]c3ccccc23)NC(=O)[C@@H](CC2CCCCC2)NC(=O)[C@@H]2CCCN2C(=O)[C@@H]2CSC(=N2)c2n[nH]cc2C[C@@H](C(N)=O)NC1=O [2-20]
–	+++ (60%<HLM residual rate (%))	N=C(N)NCCC[C@@H]1NC(=O)[C@H](Cc2c[nH]c3ccccc23)NC(=O)[C@@H](CC2CCCCC2)NC(=O)[C@@H]2CCCN2C(=O)[C@@H]2CSC(=N2)c2ncccc2C[C@@H](C(N)=O)NC1=O [3-3]
+++ (0.5<Pe (10^−6 cm/s))	+++ (60%<HLM residual rate (%))	N=C(N)NCCC[C@@H]1NC(=O)[C@H](Cc2c[nH]c3ccccc23)NC(=O)[C@@H](CC2CCCCC2)NC(=O)[C@@H]2CCCN2C(=O)[C@@H]2CSC(=N2)c2cc3c(cccc3s2)C[C@@H](C(N)=O)NC1=O [2-1]
+++ (0.5<Pe (10^−6 cm/s))	+++ (60%<HLM residual rate (%))	N=C(N)NCCC[C@@H]1NC(=O)[C@H](Cc2c[nH]c3ccccc23)NC(=O)[C@@H](CC2CCCCC2)NC(=O)[C@@H]2CCCN2C(=O)[C@@H]2CSC(=N2)c2csc(n2)C[C@@H](C(N)=O)NC1=O [2-19]
–	+++ (60%<HLM residual rate (%))	N=C(N)NCCC[C@@H]1NC(=O)[C@H](Cc2c[nH]c3ccccc23)NC(=O)[C@@H](CC2CCCCC2)NC(=O)[C@@H]2CCCN2C(=O)[C@@H]2CSC(=N2)c2cccc(n2)C[C@@H](C(N)=O)NC1=O [2-9] (P[dCha]WR[2Pal(6-thiazolin-2-yl-4R-CO)]-NH2; lactam N-5)
+++ (0.5<Pe (10^−6 cm/s))	+++ (60%<HLM residual rate (%))	N=C(N)NCCC[C@@H]1NC(=O)[C@H](Cc2c[nH]c3ccccc23)NC(=O)[C@@H](CC2CCCCC2)NC(=O)[C@@H]2CCCN2C(=O)[C@@H]2CSC(=N2)c2ccnc(c2)C[C@@H](C(N)=O)NC1=O [2-10]
–	+++ (60%<HLM residual rate (%))	N=C(N)NCCC[C@@H]1NC(=O)[C@H](Cc2c[nH]c3ccccc23)NC(=O)[C@@H](CC2CCCCC2)NC(=O)[C@@H]2CCCN2C(=O)[C@@H]2CSC(=N2)c2cnc(cn2)C[C@@H](C(N)=O)NC1=O [2-13]
–	+++ (60%<HLM residual rate (%))	N=C(N)NCCC[C@@H]1NC(=O)[C@H](Cc2c[nH]c3ccccc23)NC(=O)[C@@H](CC2CCCCC2)NC(=O)[C@@H]2CCCN2C(=O)[C@@H]2CSC(=N2)c2cc(ccn2)C[C@@H](C(N)=O)NC1=O [2-8]
+++ (0.5<Pe (10^−6 cm/s))	+++ (60%<HLM residual rate (%))	N=C(N)NCCC[C@@H]1NC(=O)[C@H](Cc2c[nH]c3ccccc23)NC(=O)[C@@H](CC2CCCCC2)NC(=O)[C@@H]2CCCN2C(=O)[C@@H]2CSC(=N2)c2cc3cc(ccc3[nH]2)C[C@@H](C(N)=O)NC1=O [3-2]
+++ (0.5<Pe (10^−6 cm/s))	+++ (60%<HLM residual rate (%))	N=C(N)NCCC[C@@H]1NC(=O)[C@H](Cc2c[nH]c3ccccc23)NC(=O)[C@@H](CC2CCCCC2)NC(=O)[C@@H]2CCCN2C(=O)[C@@H]2CSC(=N2)c2ccc(nc2)C[C@@H](C(N)=O)NC1=O [2-11]
+++ (0.5<Pe (10^−6 cm/s))	+++ (60%<HLM residual rate (%))	CC1(C)SC2=N[C@@H]1C(=O)N1CCC[C@H]1C(=O)N[C@H](CC1CCCCC1)C(=O)N[C@@H](Cc1c[nH]c3ccccc13)C(=O)N[C@@H](CCCNC(=N)N)C(=O)N[C@H](C(N)=O)Cc1cccc2n1 [2-21]
+ (0.01<Pe (10^−6 cm/s)≤0.2)	+ (HLM residual rate (%)≤40%)	C[C@@H]1NC(=O)CSC[C@@H](C(N)=O)NC(=O)[C@H](CCCNC(=N)N)NC(=O)[C@H](Cc2c[nH]c3ccccc23)NC(=O)[C@@H](CC2CCCCC2)NC(=O)[C@@H]2CCCN2C1=O [7-1] ({CH2CO}-AP[dCha]WRC-NH2; thioether N-6)
–	++ (40%<HLM residual rate (%)≤60%)	N=C(N)NCCC[C@@H]1NC(=O)[C@H](Cc2c[nH]c3ccccc23)NC(=O)[C@@H](CC2CCCCC2)NC(=O)[C@@H]2CCCN2C(=O)[C@@H]2CSC(=N2)c2nc(cs2)C[C@@H](C(N)=O)NC1=O [2-18]
+++ (0.5<Pe (10^−6 cm/s))	++ (40%<HLM residual rate (%)≤60%)	N=C(N)NCCC[C@@H]1NC(=O)[C@H](Cc2c[nH]c3ccccc23)NC(=O)[C@@H](CC2CCCCC2)NC(=O)[C@@H]2CCCN2C(=O)[C@@H]2CSC(=N2)c2cc(cs2)C[C@@H](C(N)=O)NC1=O [2-16]
++ (0.2<Pe (10^−6 cm/s)≤0.5)	++ (40%<HLM residual rate (%)≤60%)	N=C(N)NCCC[C@@H]1NC(=O)[C@H](Cc2c[nH]c3ccccc23)NC(=O)[C@@H](CC2CCCCC2)NC(=O)[C@@H]2CCCN2C(=O)[C@@H]2CSC(=N2)c2ccncc2C[C@@H](C(N)=O)NC1=O [2-5]
++ (0.2<Pe (10^−6 cm/s)≤0.5)	+++ (60%<HLM residual rate (%))	N=C(N)NCCC[C@@H]1NC(=O)[C@H](Cc2c[nH]c3ccccc23)NC(=O)[C@@H](CC2CCCCC2)NC(=O)[C@@H]2CCCN2C(=O)[C@@H]2CSC(=N2)c2cccnc2C[C@@H](C(N)=O)NC1=O [2-6]
+++ (0.5<Pe (10^−6 cm/s))	+++ (60%<HLM residual rate (%))	N=C(N)NCCC[C@@H]1NC(=O)[C@H](Cc2c[nH]c3ccccc23)NC(=O)[C@@H](CC2CCCCC2)NC(=O)[C@@H]2CCCN2C(=O)[C@@H]2CSC(=N2)c2cncc(c2)C[C@@H](C(N)=O)NC1=O [2-7]
–	++ (40%<HLM residual rate (%)≤60%)	N=C(N)NCCC[C@@H]1NC(=O)[C@H](Cc2c[nH]c3ccccc23)NC(=O)[C@@H](CC2CCCCC2)NC(=O)[C@@H]2CCCN2C(=O)[C@@H]2CSC(=N2)c2ccc(nn2)C[C@@H](C(N)=O)NC1=O [2-15]
